Experimental data from patent publication US20230355647A1, “Marker for determining anti-cancer effects of mitochondrial oxidative phosphorylation pathway inhibitor” (NANJING SHIJIANG MEDICINE TECHNOLOGY CO., LTD, priority 2020, published 2023).
pIC50: −log10 of the molar value.

Columns and labels:
WSU-DLCL2 = test: Cell viability (CellTiter-Glo), WSU-DLCL2; format: cell-based; details: Homo sapiens, WSUDLCL2; WSU-DLCL2 cell line, 3-4 days of culture
Experimental: (§1) Cell viability was detected using the Promega CellTiter-Glo kit, the kit reflected cell viability by directly measuring intracellular ATP content. The inhibitory effect (IC50 value) of Gboxin, a mitochondrial oxidative phosphorylation pathway inhibitor, on different tumor cell lines was tested in the Example. The name, source, and culture condition of each tumor cell line were as follows: Cell line WSU-DLCL2 (DSMZ, No. ACC-575) was cultured in 10% fetal bovine serum-containing RPMI1640 medium (+P/S). […] Cell viability was detected using the Promega CellTiter-Glo kit, the kit reflected cell viability by directly measuring intracellular ATP content.

OCI-LY-19 = test: Cell viability (CellTiter-Glo), OCI-LY-19; format: cell-based; details: Homo sapiens, OCI-LY19; OCI-LY-19 cell line, 3-4 days of culture
Experimental: (§2) Cell viability was detected using the Promega CellTiter-Glo kit, the kit reflected cell viability by directly measuring intracellular ATP content. The inhibitory effect (IC50 value) of Gboxin, a mitochondrial oxidative phosphorylation pathway inhibitor, on different tumor cell lines was tested in the Example. The name, source, and culture condition of each tumor cell line were as follows:
Cell line OCI-LY-19 (DSMZ, No. ACC-528) was cultured in 80-90% alpha-MEM medium containing 10-20% h.i. FBS (+P/S).
(§3) The above tumor cells were cultured in the relevant medium (+P/S), and incubated for 3 h, then the gradient diluted Gboxin was added, and IC50 (50% inhibiting concentration) was measured after 3-4 days of culture.

HCC1806 = test: Cell viability (CellTiter-Glo), HCC1806; format: cell-based; details: Homo sapiens; HCC1806 cell line, 3-4 days of culture
Experimental: as §2
Cell line HCC1806 (ATCC, No. CRL-2335) was cultured in 10% fetal bovine serum-containing RPMI1640 medium (+P/S).
as §3

LS 180 = test: Cell viability (CellTiter-Glo), LS 180; format: cell-based; details: Homo sapiens, LS180; LS 180 cell line, 3-4 days of culture
Experimental: as §2
Cell line LS 180 (ATCC, No. CL-187) was cultured in 10% fetal bovine serum-containing EMEM medium (+P/S).
as §3

HCC70 = test: Cell viability (CellTiter-Glo), HCC70; format: cell-based; details: Homo sapiens; HCC70 cell line, 3-4 days of culture
Experimental: as §2
Cell line HCC70 (ATCC, No. CRL-2315) was cultured in 10% fetal bovine serum-containing RPMI1640 medium (+P/S).
as §3

ACHN = test: Cell viability (CellTiter-Glo), ACHN; format: cell-based; details: Homo sapiens; ACHN cell line, 3-4 days of culture
Experimental: as §2
Cell line ACHN (ATCC, No. CRL-1611) was cultured in 10% fetal bovine serum-containing EMEM medium (+P/S).
as §3

769-P = test: Cell viability (CellTiter-Glo), 769-P; format: cell-based; details: Homo sapiens; 769-P cell line, 3-4 days of culture
Experimental: as §2
Cell line 769-P (ATCC, No. CRL-1933) was cultured in 10% fetal bovine serum-containing RPMI1640 medium (+P/S).
as §3

SF126 = test: Cell viability (CellTiter-Glo), SF126; format: cell-based; details: Homo sapiens, SF-126; SF126 cell line, 3-4 days of culture
Experimental: as §1, with “SF126 (JCRB,” for “WSU-DLCL2 (DSMZ,”, “IFO50286)” for “ACC-575)”, “EMEM” for “RPMI1640”

786-O = test: Cell viability (CellTiter-Glo), 786-O; format: cell-based; details: Homo sapiens, 786-0; 786-O cell line, 3-4 days of culture
Experimental: as §1, with “786-O (ATCC,” for “WSU-DLCL2 (DSMZ,”, “CRL-1932)” for “ACC-575)”

[1] = test system: mitochondrial oxidative phosphorylation pathway; test: Oxygen consumption of NCI-H82 cell, Seahorse XFe metabolic analyzer; format: cell-based, human; details: 2 μM inhibitor, detection within 0.5 h, compared with control group, FIG. 1 (n=3)
From the text: The oxygen was mainly consumed by mitochondrial oxidative phosphorylation pathway in the cell, thus the determination of oxygen consumption rate (OCR) of mitochondria could directly reflect the activity of mitochondrial oxidative phosphorylation pathway. The oxygen consumption of NCI-H82 cell in the presence or absence of Oligomycin A, Gboxin, S-Gboxin and IACS-010759, mitochondrial oxidative phosphorylation pathway inhibitors, was detected using Seahorse XFe metabolic analyzer in the present Example. NCI-H82 cell (ATCC, No. […] The control group in absence of mitochondrial oxidative phosphorylation pathway inhibitor was set. The detection of cell oxygen consumption was finished within 0.5 h.

ATF4 stress pathway = test: Western Blot of ATF4 in tumor cells after inhibitor treatment; format: cell-based, human; details: 1 μM or 3 μM Gboxin, 1 μM Oligomycin A, 12 h; for activity of ATF4 stress pathway: FIG. 3; for ATF4 stress pathway (ATF4 content): FIG. 2
Experimental: The inhibition of mitochondrial oxidative phosphorylation pathway could cause the activation of ATF4 stress pathway and the decrease of mTOR pathway activity, the activity of the mTOR pathway was reflected by the expression level of phosphorylated ribosomal protein S6 (ie, p-S6).
(§4) The tumor cells NCI-H82, G-401 and WSU-DLCL2 were cultured in the relevant 10% FBS-containing medium (+p/s), and incubated overnight, then 1 μM Gboxin, 3 μM Gboxin or 1 μM Oligomycin A as shown in FIG. 2 was added. After 12 h of incubation, the content of ATF4 and p-S6 protein was detected using Western Blot, the experiment result was shown in FIG. 2.
as §4, with “The cell lines SF126, CFPAC-1” for “The tumor cells NCI-H82, G-401”, “and 786-O” for “and WSU-DLCL2”, “FIG. 3” for “FIG. 2”, “FIG. 3.” for “FIG. 2.”

Compound `CCc1n(CC(=O)O[C@@H]2C[C@H](C)CC[C@H]2C(C)C)c2ccccc2[n+]1C.[Cl-]` [Gboxin] has a pIC50 (WSU-DLCL2) of 6.17, a pIC50 (OCI-LY-19) of 5.60 and a pIC50 (HCC1806) of 5.50. For the same compound, the pIC50 (LS 180) was 5.05, the pIC50 (HCC70) was 4.95 and the pIC50 (ACHN) was 4.78. For the same compound, the pIC50 (769-P) was under 4.52, the pIC50 (SF126) was under 4.52 and the pIC50 (786-O) was under 4.52. For the same compound, the “oxygen consumption of NCI-H82 cells” value [1] was “significantly inhibit”, the “activity of ATF4 stress pathway” value (ATF4 stress pathway; 786-O cells) was “no significant changes” and the “activity of ATF4 stress pathway” value (ATF4 stress pathway; CFPAC-1 cells) was “no significant changes”. The “ATF4 stress pathway (ATF4 content)” value (ATF4 stress pathway; G-401 cells) was “up-regulated”, the “ATF4 stress pathway (ATF4 content)” value (ATF4 stress pathway; NCI-H82 cells) was “up-regulated” and the “activity of ATF4 stress pathway” value (ATF4 stress pathway; SF126 cells) was “no significant changes”. The “ATF4 stress pathway (ATF4 content)” value (ATF4 stress pathway; WSU-DLCL2 cells) was “up-regulated”.
